Results from patent US10201564B2, “Methods of using inhaled nitric oxide gas for treatment of acute respiratory distress syndrome in children” (Mallinckrodt Hospital Products IP Limited, priority 2014, dated 2019).

Test system: pediatric subjects with acute hypoxemic respiratory failure (AHRF)
Assay: Pediatric AHRF study: adverse events, serious adverse events, deaths, discontinuations
Type: in vivo, human
Settings: 5 ppm
Method: This was a prospective, multicenter, randomized, double-blind, placebo-controlled, parallel-group study of the safety and efficacy of inhaled nitric oxide in pediatric subjects with acute hypoxemic respiratory failure (AHRF). The subjects were randomized to receive either 5 ppm inhaled nitric oxide or placebo.
Nitric Oxide for inhalation at 5 ppm was administered continuously into the inspiratory limb of the ventilator circuit in mechanically ventilated subjects using a blinded version of the INOvent® delivery system.
Subjects received 100% treatment gas (nitric oxide 5 ppm or placebo [nitrogen gas]) until Day 28 or extubation, whichever occurred first.
This was a prospective, multicenter, randomized, double-blind, placebo-controlled, Phase III study to assess the effects of nitric oxide for inhalation in the treatment of acute hypoxic respiratory failure (AHRF) in pediatric subjects. The study population consisted of male and female pediatric subjects, aged 44 weeks postconceptional age to 16 years age, who were admitted to the pediatric intensive care unit (PICU) and who required intubation because of AHRF. The inclusion/exclusion criteria are described in the Patients section below.
Standardized ventilatory management and weaning procedures were used. Ventilatory management was used based on an “open lung approach” using positive end-expiratory pressure (PEEP) to increase lung volume and limiting tidal volumes to reduce plateau pressures. Subjects received nitric oxide for inhalation at 5 ppm or placebo (100% Grade 5 nitrogen gas) into the inspiratory limb of the ventilator circuit using a blinded version of the INOvent® delivery system. The subjects were treated until Day 28 or extubation, whichever occurred first. Subjects were assessed daily using a spontaneous breathing trial, according to the institution's standard of care. Arterial blood gases (ABG), ventilator settings, methemoglobin, oxygenation index, systolic blood pressure, diastolic blood pressure, Pediatric Risk of Mortality (PRISM) III score, and subject positioning (prone or supine) were performed/recorded at specified times during the study. Selected centers also performed plasma cytokine assays, bronchoalveolar lavage fluid (BALF) assays, and a 6-month follow-up assessment.

[1] = AE with death as outcome, not suspected related to treatment
[2] = AE with death as outcome, suspected related to treatment
[3] = relationship to study treatment Not Suspected
[4] = relationship to study treatment Suspected

## [N]=O [Nitric Oxide, nitric oxide]
[1]
  Hepatic failure: 0 (0.0) n (%)
  Hypotension: 1 (3.8%) n (%)
  Intracranial pressure increased: 0 (0.0) n (%)
  Multi-organ failure: 0 (0.0) n (%)
  Pancreatitis: 0 (0.0) n (%)
  Pneumonia, aspergillus: 0 (0.0) n (%)
  Pulmonary hemorrhage: 0 (0.0) n (%)
  Renal failure: 0 (0.0) n (%)
  Renal impairment: 0 (0.0) n (%)
  Sepsis: 0 (0.0) n (%)
[2]
  Bradycardia: 0 (0.0) n (%)
  Brain edema: 0 (0.0) n (%)
  Cardiac arrest: 0 (0.0) n (%)
  Diabetic ketoacidosis: 0 (0.0) n (%)
  Hemolytic anemia: 0 (0.0) n (%)
  Hepatic failure: 0 (0.0) n (%)
  Hypotension: 0 (0.0) n (%)
  Intracranial pressure increased: 0 (0.0) n (%)
  Multi-organ failure: 0 (0.0) n (%)
  Pancreatitis: 0 (0.0) n (%)
  Pneumonia, aspergillus: 0 (0.0) n (%)
  Pulmonary hemorrhage: 0 (0.0) n (%)
  Renal failure: 0 (0.0) n (%)
  Renal impairment: 0 (0.0) n (%)
  Sepsis: 0 (0.0) n (%)
By actual treatment received
  Adverse event where treatment was stopped: Bradycardia, subjects n (%): 1 (3.8%)
  Adverse event where treatment was stopped: Hypotension, subjects n (%): 1 (3.8%)
  Adverse event where treatment was stopped: Pulmonary hemorrhage, subjects n (%): 0 (00) ^
  Adverse event where treatment was stopped: Sepsis, subjects n (%): 0 (0.0)^
  Serious adverse event: Bradycardia, subjects n (%): 1 (3.8%)
  Serious adverse event: Brain edema, subjects n (%): 0 (0.0)
  Serious adverse event: Cardiac arrest, subjects n (%): 0 (0.0)
  Serious adverse event: Cerebral artery occlusion, subjects n (%): 0 (0.0)
  Serious adverse event: Diabetic ketoacidosis, subjects n (%): 0 (0.0)
  Serious adverse event: Hemolytic anemia, subjects n (%): 0 (0.0)
  Serious adverse event: Hemopneumothorax, subjects n (%): 0 (0.0)
  Serious adverse event: Hemothorax, subjects n (%): 0 (0.0)
  Serious adverse event: Hepatic failure, subjects n (%): 0 (0.0)
  Serious adverse event: Hypotension, subjects n (%): 1 (3.8%)
  Serious adverse event: Hypoxia, subjects n (%): 0 (0.0)
  Serious adverse event: Intracranial pressure increased, subjects n (%): 0 (0.0)
  Serious adverse event: Multi-organ failure, subjects n (%): 0 (0.0)
  Serious adverse event: Pancreatitis, subjects n (%): 0 (0.0)
  Serious adverse event: Pneumonia, aspergillus, subjects n (%): 0 (0.0)
  Serious adverse event: Pulmonary hemorrhage, subjects n (%): 0 (0.0)
  Serious adverse event: Renal failure, acute, subjects n (%): 0 (0.0)
  Serious adverse event: Renal failure, subjects n (%): 0 (0.0)
  Serious adverse event: Renal impairment, subjects n (%): 0 (0.0)
  Serious adverse event: Respiratory failure, subjects n (%): 0 (0.0)
  Serious adverse event: Sepsis, subjects n (%): 0 (0.0)
  Serious adverse event: Subdural hematoma, subjects n (%): 0 (0.0)
  Serious adverse event: Unevaluable event, subjects n (%): 0 (0.0)
In words
  likelihood to experience adverse events versus placebo: no more likely
  overall safety and tolerability in children with AHRF: safe and well tolerated
  safety profile versus placebo (methemoglobin levels, frequency of AEs, mortality rates): compare favorably
N = 26
  Subjects with one or more AEs: 16 (61.5%) n (%)
  Subjects with one or more AEs suspected to be related to study treatment: 0 (0)^ ^ n (%)
  Subjects with one or more SAEs: 1 (3.9%) n (%)
  Subjects with one or more severe AEs: 2 (7.7%) n (%)
  Subjects withdrawn due to AEs: 1 (3.9%) n (%)
  Total AEs leading to discontinuation of study treatment: 2
  Total AEs suspected to be related to study treatment: 0
  Total SAEs: 2
  Total SAEs or AEs leading to discontinuation of study treatment suspected to be related to study treatment: 0
  Total severe AEs: 4
N = 26, counted by dictionary-derived term
  Total AEs: 52
[3]
  Adverse event where treatment was stopped: Bradycardia, subjects n (%): 1 (3.8%)
  Adverse event where treatment was stopped: Hypotension, subjects n (%): 1 (3.8%)
  Adverse event where treatment was stopped: Pulmonary hemorrhage, subjects n (%): 0 (0.0)^
  Adverse event where treatment was stopped: Sepsis, subjects n (%): 0 (0.0)^
  Serious adverse event: Bradycardia, subjects n (%): 1 (3.8%)
  Serious adverse event: Brain edema, subjects n (%): 0 (0.0)
  Serious adverse event: Cardiac arrest, subjects n (%): 0 (0.0)
  Serious adverse event: Cerebral artery occlusion, subjects n (%): 0 (0.0)
  Serious adverse event: Diabetic ketoacidosis, subjects n (%): 0 (0.0)
  Serious adverse event: Hemolytic anemia, subjects n (%): 0 (0.0)
  Serious adverse event: Hemopneumothorax, subjects n (%): 0 (0.0)
  Serious adverse event: Hemothorax, subjects n (%): 0 (0.0)
  Serious adverse event: Hepatic failure, subjects n (%): 0 (0.0)
  Serious adverse event: Hypotension, subjects n (%): 1 (3.8%)
  Serious adverse event: Hypoxia, subjects n (%): 0 (0.0)
  Serious adverse event: Intracranial pressure increased, subjects n (%): 0 (0.0)
  Serious adverse event: Multi-organ failure, subjects n (%): 0 (0.0)
  Serious adverse event: Pancreatitis, subjects n (%): 0 (0.0)
  Serious adverse event: Pneumonia, aspergillus, subjects n (%): 0 (0.0)
  Serious adverse event: Pulmonary hemorrhage, subjects n (%): 0 (0.0)
  Serious adverse event: Renal failure, acute, subjects n (%): 0 (0.0)
  Serious adverse event: Renal failure, subjects n (%): 0 (0.0)
  Serious adverse event: Renal impairment, subjects n (%): 0 (0.0)
  Serious adverse event: Respiratory failure, subjects n (%): 0 (0.0)
  Serious adverse event: Sepsis, subjects n (%): 0 (0.0)
  Serious adverse event: Subdural hematoma, subjects n (%): 0 (0.0)
  Serious adverse event: Unevaluable event, subjects n (%): 0 (0.0)
[4]
  Adverse event where treatment was stopped: Bradycardia, subjects n (%): 0 (0.0)
  Adverse event where treatment was stopped: Hypotension, subjects n (%): 0 (0.0)
  Adverse event where treatment was stopped: Pulmonary hemorrhage, subjects n (%): 0 (0.0)
  Adverse event where treatment was stopped: Sepsis, subjects n (%): 0 (0.0)
  Serious adverse event: Bradycardia, subjects n (%): 0 (0.0)
  Serious adverse event: Brain edema, subjects n (%): 0 (0.0)
  Serious adverse event: Cardiac arrest, subjects n (%): 0 (0.0)
  Serious adverse event: Cerebral artery occlusion, subjects n (%): 0 (0.0)
  Serious adverse event: Diabetic ketoacidosis, subjects n (%): 0 (0.0)
  Serious adverse event: Hemolytic anemia, subjects n (%): 0 (0.0)
  Serious adverse event: Hemopneumothorax, subjects n (%): 0 (0.0)
  Serious adverse event: Hemothorax, subjects n (%): 0 (0.0)
  Serious adverse event: Hepatic failure, subjects n (%): 0 (0.0)
